From patent US12723064B2, “Treating Alzheimer's disease” (Yeda Research and Development Co. Ltd., priority 2020, dated 2026)
Entries after “also recorded” stand apart in the source; their conditions may differ.

How the values were obtained:
APP-Tau binding = target: T1, APP-Tau binding (Homo sapiens, UniProt P10636); assay: ELISA: peptide inhibition of Tau and APP protein binding; conditions: peptides or combinations 1 μg/ml, four hours at RT before APP protein; anti Aß detection
T1 construct: purchased Bio-Legend US
T1 sequence (P10636 1-441 isoform P10636-8): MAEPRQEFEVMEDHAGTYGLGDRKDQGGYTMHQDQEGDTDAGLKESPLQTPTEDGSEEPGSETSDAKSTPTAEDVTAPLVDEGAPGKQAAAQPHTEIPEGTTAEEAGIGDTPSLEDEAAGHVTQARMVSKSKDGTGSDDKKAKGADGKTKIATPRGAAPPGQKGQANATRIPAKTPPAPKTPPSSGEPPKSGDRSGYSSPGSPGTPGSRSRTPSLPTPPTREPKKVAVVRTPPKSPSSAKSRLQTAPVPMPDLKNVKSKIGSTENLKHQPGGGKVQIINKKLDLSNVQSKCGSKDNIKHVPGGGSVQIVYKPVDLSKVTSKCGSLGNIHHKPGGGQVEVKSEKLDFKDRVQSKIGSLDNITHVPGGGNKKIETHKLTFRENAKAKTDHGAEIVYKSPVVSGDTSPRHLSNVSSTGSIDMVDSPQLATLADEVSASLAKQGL
Method: An ELISA plate (96 wells) was coated with Tau protein 1 μg/ml in bicarbonate PH=8.2 50 μl/well, then incubated overnight at 4° C. Peptides and their combinations were also incubated overnight at 4° C. in PBS 1 μg/ml. The next day, the plate was washed 3× with PBS and blocked with 3% BSA/PBS for two hours at RT. The plate was washed again 3× with PBS and peptides or their combinations 50 ul/well were added for four hours at RT. The plate was washed again 3× with PBS and APP protein, 1 μg/ml 50 μl/well was added for ON incubation at 4° C. The next day, the plate was washed 3× with PBS, following which anti Aß 1-16 (1 mg/ml) was added (1:500 dilution 50 μl/well) for two hours at RT. The plate was washed again and anti-mouse HRP antibodies (1:10,000 dilution in PBS 1% BSA) added at 50 μl/well. Color reaction was stopped with 50 μl/well of 1M H2S04 and read at 0.D. 450.

hippocampus = assay: Number of elements and % of area in the hippocampus (Table 3); format: in vivo, mice
Method: Mice were sacrificed (trans-cardially punctured, and saline-perfused). The right brain hemisphere of each mouse was stored at −70° C. to quantify Aβ levels. The left hemispheres were fixed (4% paraformaldehyde) and prepared for paraffin blocks which were cut into six micron sagittal sections and used for histological staining and examination. Sagittal brain sections were stained with Congo red dye (Sigma-Aldrich) and visualized by fluorescence microscopy. Quantification of amyloid depositions was done for the whole hippocampal area in a blinded fashion using Imaging Research software from the National Institutes of Health in an unbiased stereological approach.

mice = assay: Y maze behavior test of APP1 peptide flexibly linked to Tau peptide; format: in vivo; conditions: treated mice vs control treated mice (PBS), FIG. 6
Description: The Y-maze test (45) consists of two trials, first “training” and second “retention”, separated by an inter-trial interval (ITI). Each arm of the Y-maze was equipped with a guillotine door that could be operated manually. The three identical arms were randomly designated as follows: the “start” (steam) arm, in which the mouse began to explore the maze (always open); the “Novel” arm, which was closed off during the first trial, but open in the second one; and the “other” arm (always open). The first (training) trial lasted five minutes and allowed the mouse to explore only two arms (“start” and “other”) of the maze. Access to the third (“Novel”) arm was blocked. The second trial (retention) was conducted after a two minute ITL. During this three minute trial, all three arms were accessible. The mouse was returned to the same starting arm and was allowed to explore all three arms. Retention was scored as a preferential index to the “Novel” arm, that was calculated as follows: time spent in the “Novel” arm minus the time spent in the old arm divided by the sum of time spent in both arms (46).
An additional experiment was carried out testing the effects of the APP1 peptide flexibly linked to the TAU peptide on behavior as tested in the Y maze.

Tau = conditions: previously reported (19); cited from earlier work

Sequence | inhibition of APP protein binding to Tau coated plate (APP-Tau binding) | % of area (hippocampus) [%] | Number of elements (hippocampus) | Y maze preferential index (cognitive ability) (mice) | binding to Tau (Tau)
GLGDRKDQGGYTMHQD [Tau1, synthetic peptide from N-terminal end of Tau protein (residues 19-34)] | not inhibited |  |  |  | 
HFQKAKERLEAKHRERMSQVMREGGGGSGGGGSGGGGSGLGDRKDQGGYTMHQD (example of a peptide which comprises an APP derived peptide linked by a flexible peptide linker to a TAU derived peptide) |  | 1.9 | 112 | improve | 
HFQKAKERLEAKHRERMSQVMRE [APP1, synthetic peptide from APP protein, APP1 (390-412)] | significant but partial inhibition; also recorded: significant, but partial inhibition |  |  |  | 
ATVIVITLVMLKKKQYTS [APP2, reference compound] | not inhibited |  |  |  | bind Tau
